In patent US20250339569A1, “CARBONIC ANHYDRASE IX LIGANDS” (priority 2021, published 2025):
Starred links: 1 amine or outer side, 2 acyl side, 3 side chain; linkers in the order of their positions; H or OH if unused. Positions of bridges follow the written chain, without caps; N, C: chain ends. Non-standard residues stand in square brackets, D forms with d. Residues, ends and D or L forms follow the SMILES beside them. ξ: configuration not given here. *: point of attachment. NH(1-deoxy-D-glucityl) = OC[C@@H](O)[C@@H](O)[C@H](O)[C@@H](O)CN*; DOTA = O=C(O)CN1CCN(CC(=O)O)CCN(CC(=O)*)CCN(CC(=O)O)CC1; X19 = O=C([C@H](CS(=O)(=O)Cc1ccccc1)N[*:1])[*:2]; Phe(3-CF3) = N[C@@H](Cc1cccc(C(F)(F)F)c1)C(=O)O; Phe(4-CF3) = N[C@@H](Cc1ccc(C(F)(F)F)cc1)C(=O)O; ξTrp(7-Me) = Cc1cccc2c(CC(N)C(=O)O)c[nH]c12; ξTrp(1-Me) = Cn1cc(CC(N)C(=O)O)c2ccccc21; Phe(4-I) = N[C@@H](Cc1ccc(I)cc1)C(=O)O; mXylylene = c1cc(C[*:1])cc(C[*:2])c1; X2 = O=C(CN1CCC(N[*:1])CC1)[*:2]; Cha = N[C@@H](CC1CCCCC1)C(=O)O; NMeD = CN[C@@H](CC(=O)O)C(=O)O

How the values were obtained:
[1] = target: T1, CAIX-expressing human HT-29 colorectal cancer cells (Homo sapiens, UniProt Q16790); test: FACS binding assay (IC50 determination, competition with tracer 3BP-2776 or 3BP-4149); conditions: FACS binding assay, HT-29 cells, competition with tracer 3BP-2776 (10 nM, biotin-labeled), 4° C., 1 hour; read-out: pIC50 category (activity) (converted)
T1 construct: CAIX-expressing human HT-29 colorectal cancer cells; host or cells: HT-29 human colorectal cancer cells
Outline: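 HT-29 cells in FACS buffer (PBS, 1% FCS) at 500.000 cells/ml were exposed to compounds competing with a labelled tracer, with biotinylated compounds detected by 1 μg/mL APC-streptavidin for 30 min on ice. APC/Cy5 median fluorescence was read by flow cytometry and IC50 derived by 4PL fit.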

[2] = target: T2, human carbonic anhydrase IX (hCAIX-Fc) (Homo sapiens, UniProt Q16790); test: Surface plasmon resonance assay with hCAIX-Fc; assay type: binding; conditions: 25° C.; for t1/2 category (activity): SPR dissociation half-life, hCAIX-Fc; for Kd: SPR, hCAIX-Fc captured, read-out: pKD category (activity) (converted)
T2 construct: purchased SinoBliological (Sino Biological) 10107-H02H

Structure (SMILES) | IC50 [1] [nM] | t1/2 category (activity) [2] | Kd [2] [nM]
CC(C)C[C@@H]1NC(=O)[C@H](Cc2c[nH]c3ccccc23)NC(=O)[C@H](CC(=O)O)NC(=O)[C@H]2CCCN2C(=O)[C@H](CCC(N)=O)NC(=O)[C@@H](NC(=O)[C@H](Cc2ccc(O)cc2)NC(=O)[C@@H](NC(=O)CN2CCC(NC(=O)CN3CCN(CC(=O)O)CCN(CC(=O)O)CCN(CC(=O)O)CC3)CC2)C(C)C)CSCc2cccc(c2)CSC[C@@H](C(N)=O)NC(=O)[C@H](CO)NC(=O)[C@H](Cc2c[nH]c3ccccc23)NC(=O)[C@H]([C@@H](C)O)NC1=O [3BP-4104] ({DOTA}-[X2]VYCQ[dP]DWLTWSC-NH2; linker 4-13 via mXylylene) | < 10 | B (t1/2 between 5.1 and 15.0 minutes) | < 10
CC(C)C[C@@H]1NC(=O)[C@H](Cc2c[nH]c3ccccc23)NC(=O)[C@H](CC(=O)O)NC(=O)[C@H]2CCCN2C(=O)[C@H](CCC(=O)O)NC(=O)[C@@H](NC(=O)[C@H](CO)NC(=O)[C@@H](NC(=O)CN2CCC(NC(=O)CN3CCN(CC(=O)O)CCN(CC(=O)O)CCN(CC(=O)O)CC3)CC2)C(C)C)CSCc2cccc(c2)CSC[C@@H](C(N)=O)NC(=O)[C@H](CO)NC(=O)[C@H](Cc2c[nH]c3ccccc23)NC(=O)[C@H]([C@@H](C)O)NC1=O [3BP-4105] ({DOTA}-[X2]VSCE[dP]DWLTWSC-NH2; linker 4-13 via mXylylene) | < 10 | B (t1/2 between 5.1 and 15.0 minutes) | < 10
CC(C)C[C@@H]1NC(=O)[C@H](Cc2c[nH]c3ccccc23)NC(=O)[C@H](CC(=O)O)N(C)C(=O)[C@H]2CCCN2C(=O)[C@H](CCC(=O)O)NC(=O)[C@@H](NC(=O)[C@H](Cc2ccc(O)cc2)NC(=O)[C@@H](NC(=O)CN2CCC(NC(=O)CN3CCN(CC(=O)O)CCN(CC(=O)O)CCN(CC(=O)O)CC3)CC2)C(C)C)CSCc2cccc(c2)CSC[C@@H](C(N)=O)NC(=O)[C@H](CO)NC(=O)[C@H](Cc2c[nH]c3ccccc23)NC(=O)[C@H]([C@@H](C)O)NC1=O [3BP-4107] ({DOTA}-[X2]VYCE[dP][NMeD]WLTWSC-NH2; linker 4-13 via mXylylene) | < 10 | A (t1/2>15.0 minutes) | < 10
CC(C)C[C@@H]1NC(=O)[C@H](Cc2c[nH]c3ccccc23)NC(=O)[C@H](CC(=O)O)NC(=O)[C@@H](CCC(=O)NC[C@H](O)[C@@H](O)[C@H](O)[C@H](O)CO)NC(=O)[C@H](CCC(=O)O)NC(=O)[C@@H](NC(=O)[C@H](Cc2ccc(O)cc2)NC(=O)[C@@H](NC(=O)CN2CCC(NC(=O)CN3CCN(CC(=O)O)CCN(CC(=O)O)CCN(CC(=O)O)CC3)CC2)C(C)C)CSCc2cccc(c2)CSC[C@@H](C(N)=O)NC(=O)[C@H](CO)NC(=O)[C@H](Cc2c[nH]c3ccccc23)NC(=O)[C@H]([C@@H](C)O)NC1=O [3BP-4119] ({DOTA}-[X2]VYCE[dE](NH(1-deoxy-D-glucityl))DWLTWSC-NH2; linker 4-13 via mXylylene) | < 10 |  | < 10
CC(C)C[C@@H]1NC(=O)[C@H](Cc2c[nH]c3ccccc23)NC(=O)[C@H](CC(=O)O)NC(=O)[C@H]2CCCN2C(=O)[C@H](CCC(=O)O)NC(=O)[C@@H](NC(=O)[C@H](Cc2ccc(O)cc2)NC(=O)[C@@H](NC(=O)CN2CCC(NC(=O)CN3CCN(CC(=O)O)CCN(CC(=O)O)CCN(CC(=O)O)CC3)CC2)C(C)C)CSCc2cccc(c2)CSC[C@@H](C(N)=O)NC(=O)[C@H](CO)NC(=O)[C@H](Cc2c[nH]c3ccccc23)NC(=O)[C@H](CCC(=O)NC[C@H](O)[C@@H](O)[C@H](O)[C@H](O)CO)NC1=O [3BP-4121] ({DOTA}-[X2]VYCE[dP]DWLE(NH(1-deoxy-D-glucityl))WSC-NH2; linker 4-13 via mXylylene) | < 10 | A (t1/2>15.0 minutes) | < 10
CC(C)C[C@@H]1NC(=O)[C@H](Cc2c[nH]c3ccccc23)NC(=O)[C@H](CC(=O)O)NC(=O)[C@H]2CCCN2C(=O)[C@H](CCC(=O)O)NC(=O)[C@@H](NC(=O)[C@H](Cc2ccc(O)cc2)NC(=O)[C@@H](NC(=O)CN2CCC(NC(=O)CN3CCN(CC(=O)O)CCN(CC(=O)O)CCN(CC(=O)O)CC3)CC2)C(C)C)CSCc2cccc(c2)CSC[C@@H](C(N)=O)NC(=O)[C@H](CCC(=O)NC[C@H](O)[C@@H](O)[C@H](O)[C@H](O)CO)NC(=O)[C@H](Cc2c[nH]c3ccccc23)NC(=O)[C@H]([C@@H](C)O)NC1=O [3BP-4122] ({DOTA}-[X2]VYCE[dP]DWLTWE(NH(1-deoxy-D-glucityl))C-NH2; linker 4-13 via mXylylene) | < 10 | A (t1/2>15.0 minutes) | < 10
CC(C)C[C@@H]1NC(=O)[C@H](Cc2c[nH]c3ccccc23)NC(=O)[C@H](CS(=O)(=O)Cc2ccccc2)NC(=O)[C@H]2CCCN2C(=O)[C@H](CCC(=O)O)NC(=O)[C@@H](NC(=O)[C@H](Cc2ccc(O)cc2)NC(=O)[C@@H](NC(=O)CN2CCC(NC(=O)CN3CCN(CC(=O)O)CCN(CC(=O)O)CCN(CC(=O)O)CC3)CC2)C(C)C)CSCc2cccc(c2)CSC[C@@H](C(N)=O)NC(=O)[C@H](CO)NC(=O)[C@H](Cc2c[nH]c3ccccc23)NC(=O)[C@H]([C@@H](C)O)NC1=O [3BP-4123] ({DOTA}-[X2]VYCE[dP][X19]WLTWSC-NH2; linker 4-13 via mXylylene) | < 10 | A (t1/2>15.0 minutes) | < 10
CC(C)C[C@@H]1NC(=O)[C@H](Cc2ccc(I)cc2)NC(=O)[C@H](CC(=O)O)NC(=O)[C@H]2CCCN2C(=O)[C@H](CCC(=O)O)NC(=O)[C@@H](NC(=O)[C@H](Cc2ccc(O)cc2)NC(=O)[C@@H](NC(=O)CN2CCC(NC(=O)CN3CCN(CC(=O)O)CCN(CC(=O)O)CCN(CC(=O)O)CC3)CC2)C(C)C)CSCc2cccc(c2)CSC[C@@H](C(N)=O)NC(=O)[C@H](CO)NC(=O)[C@H](Cc2c[nH]c3ccccc23)NC(=O)[C@H]([C@@H](C)O)NC1=O [3BP-4134] ({DOTA}-[X2]VYCE[dP]D[Phe(4-I)]LTWSC-NH2; linker 4-13 via mXylylene) | < 10 | C (t1/2 between 2.1 and 5.0 minutes) | < 10
CC(C)C[C@@H]1NC(=O)[C@H](Cc2cccc(C(F)(F)F)c2)NC(=O)[C@H](CC(=O)O)NC(=O)[C@H]2CCCN2C(=O)[C@H](CCC(=O)O)NC(=O)[C@@H](NC(=O)[C@H](Cc2ccc(O)cc2)NC(=O)[C@@H](NC(=O)CN2CCC(NC(=O)CN3CCN(CC(=O)O)CCN(CC(=O)O)CCN(CC(=O)O)CC3)CC2)C(C)C)CSCc2cccc(c2)CSC[C@@H](C(N)=O)NC(=O)[C@H](CO)NC(=O)[C@H](Cc2c[nH]c3ccccc23)NC(=O)[C@H]([C@@H](C)O)NC1=O [3BP-4135] ({DOTA}-[X2]VYCE[dP]D[Phe(3-CF3)]LTWSC-NH2; linker 4-13 via mXylylene) | < 10 | B (t1/2 between 5.1 and 15.0 minutes) | < 10
CC(C)C[C@@H]1NC(=O)[C@H](Cc2ccc(C(F)(F)F)cc2)NC(=O)[C@H](CC(=O)O)NC(=O)[C@H]2CCCN2C(=O)[C@H](CCC(=O)O)NC(=O)[C@@H](NC(=O)[C@H](Cc2ccc(O)cc2)NC(=O)[C@@H](NC(=O)CN2CCC(NC(=O)CN3CCN(CC(=O)O)CCN(CC(=O)O)CCN(CC(=O)O)CC3)CC2)C(C)C)CSCc2cccc(c2)CSC[C@@H](C(N)=O)NC(=O)[C@H](CO)NC(=O)[C@H](Cc2c[nH]c3ccccc23)NC(=O)[C@H]([C@@H](C)O)NC1=O [3BP-4139] ({DOTA}-[X2]VYCE[dP]D[Phe(4-CF3)]LTWSC-NH2; linker 4-13 via mXylylene) | < 10 | C (t1/2 between 2.1 and 5.0 minutes) | < 10
CC(C)[C@H](NC(=O)CN1CCC(NC(=O)CN2CCN(CC(=O)O)CCN(CC(=O)O)CCN(CC(=O)O)CC2)CC1)C(=O)N[C@@H](Cc1ccc(O)cc1)C(=O)N[C@H]1CSCc2cccc(c2)CSC[C@@H](C(N)=O)NC(=O)[C@H](CO)NC(=O)[C@H](Cc2c[nH]c3ccccc23)NC(=O)[C@H]([C@@H](C)O)NC(=O)[C@H](CC2CCCCC2)NC(=O)[C@H](Cc2c[nH]c3ccccc23)NC(=O)[C@H](CC(=O)O)NC(=O)[C@H]2CCCN2C(=O)[C@H](CCC(=O)O)NC1=O [3BP-4143] ({DOTA}-[X2]VYCE[dP]DW[Cha]TWSC-NH2; linker 4-13 via mXylylene) | < 10 | C (t1/2 between 2.1 and 5.0 minutes) | < 10
CC(C)C[C@@H]1NC(=O)C(Cc2cn(C)c3ccccc23)NC(=O)[C@H](CC(=O)O)NC(=O)[C@H]2CCCN2C(=O)[C@H](CCC(=O)O)NC(=O)[C@@H](NC(=O)[C@H](Cc2ccc(O)cc2)NC(=O)[C@@H](NC(=O)CN2CCC(NC(=O)CN3CCN(CC(=O)O)CCN(CC(=O)O)CCN(CC(=O)O)CC3)CC2)C(C)C)CSCc2cccc(c2)CSC[C@@H](C(N)=O)NC(=O)[C@H](CO)NC(=O)[C@H](Cc2c[nH]c3ccccc23)NC(=O)[C@H]([C@@H](C)O)NC1=O (some centres unmarked) [3BP-4144] ({DOTA}-[X2]VYCE[dP]D[ξTrp(1-Me)]LTWSC-NH2; linker 4-13 via mXylylene) | < 10 | B (t1/2 between 5.1 and 15.0 minutes) | < 10
Cc1cccc2c(CC3NC(=O)[C@H](CC(=O)O)NC(=O)[C@H]4CCCN4C(=O)[C@H](CCC(=O)O)NC(=O)[C@@H](NC(=O)[C@H](Cc4ccc(O)cc4)NC(=O)[C@@H](NC(=O)CN4CCC(NC(=O)CN5CCN(CC(=O)O)CCN(CC(=O)O)CCN(CC(=O)O)CC5)CC4)C(C)C)CSCc4cccc(c4)CSC[C@@H](C(N)=O)NC(=O)[C@H](CO)NC(=O)[C@H](Cc4c[nH]c5ccccc45)NC(=O)[C@H]([C@@H](C)O)NC(=O)[C@H](CC(C)C)NC3=O)c[nH]c12 (some centres unmarked) [3BP-4158] ({DOTA}-[X2]VYCE[dP]D[ξTrp(7-Me)]LTWSC-NH2; linker 4-13 via mXylylene) | < 10 | B (t1/2 between 5.1 and 15.0 minutes) | < 10
